# From patent publication US8569336B2, “Compounds for the treatment of inflammatory disorders” (priority 2008, dated 2013)
# Read-outs that look alike come from different tables or passages of the source.
# How the values were obtained:
# [1] = molecular target: T1, purified catalytic domain of recombinant human TACE (rhTACEc) (Homo sapiens, UniProt P78536, N452Q/S266A); assay: TACE kinetic assay: cleavage of internally quenched peptide substrate TNF-FRET 2 (Ki); format: biochemical; settings: TNF-FRET 2 substrate
# T1 construct: 6xHis (C); made in house; host or cells: baculovirus/Hi5 insect cells
# T1 sequence (P78536 215-477 S266A/N452Q): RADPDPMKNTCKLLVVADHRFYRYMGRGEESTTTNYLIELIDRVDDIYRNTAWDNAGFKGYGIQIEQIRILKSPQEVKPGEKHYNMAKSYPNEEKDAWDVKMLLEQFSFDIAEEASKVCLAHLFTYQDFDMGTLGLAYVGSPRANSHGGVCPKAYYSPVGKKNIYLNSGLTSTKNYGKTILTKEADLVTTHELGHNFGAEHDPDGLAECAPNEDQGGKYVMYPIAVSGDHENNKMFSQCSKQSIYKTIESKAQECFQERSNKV
# [2] = test system: TNF-α production from human whole blood; assay: Inhibition of TNF-α production from human whole blood (hWBA), LPS stimulated, ELISA; format: cell-based; settings: Homo sapiens, TNF-α by ELISA, read-out: hWBA (IC50)
# [3] = LPS-stimulated human whole blood
# [4] = human whole blood diluted 1:1, LPS stimulated
# [5] = 3.5 h, human whole blood diluted 1:1, LPS stimulated, 3.5 h
Compound,Ki ([1]; read-out: Ki),"IC50 [2, 3]","IC50 [2, 4]",Ki ([1]; Ki),"IC50 [2, 5]"
COc1ccc2c(c1)C(=O)N(C[C@@]1(c3cc4[nH]c(=O)ccc4o3)NC(=O)NC1=O)C2 [Compound 1946],0.37 nM,0.542 µM,,,
CCNC(=O)NCc1ccc2oc([C@]3(CN4Cc5ccc(OC)cc5C4=O)NC(=O)NC3=O)cc2c1 [Compound 2485],0.76 nM,,1.99 µM,,
CCCN1CCC(c2nc3cc([C@]4(CN5Cc6ccc(OC)c(F)c6C5=O)NC(=O)NC4=O)oc3cc2F)CC1 [Compound 1324],,0.248 µM,,0.58 nM,
COc1ccc2c(c1)C(=O)N(C[C@@]1(c3cc4ccc(OC)cc4o3)NC(=O)NC1=O)C2 [Compound 2187],0.989 nM,,,,4.03 µM
COc1ccc2c(c1)C(=O)N(C[C@@]1(c3cc4nc(Nc5nccs5)ccc4o3)NC(=O)NC1=O)C2 [Compound 2113],0.62 nM,,,,1.4 µM
COc1ccc2c(c1)C(=O)N(C[C@@]1(c3cc4nc(N5C(=O)CC[C@@H]5CO)ccc4o3)NC(=O)NC1=O)C2 [Compound 2157],0.731 nM,,,,0.382 µM
COc1ccc2c(c1)C(=O)N(C[C@@]1(c3cc4cc(CN)ccc4o3)NC(=O)NC1=O)C2 [Compound 2182],0.79 nM,,,,0.532 µM
COc1ccc2c(c1)C(=O)N(C[C@@]1(c3cc4nc(N(CCO)Cc5ccccn5)ccc4o3)NC(=O)NC1=O)C2 [Compound 1701],2.49 nM,2.21 µM,,,
COc1ccc2c(c1)C(=O)N(C[C@@]1(c3cc4cc(/C(=N\O)N5CC[C@H](N(C)C)C5)ccc4o3)NC(=O)NC1=O)C2 [Compound 2488],0.8 nM,,0.321 µM,,
COc1ccc2c(c1)C(=O)N(C[C@@]1(c3cc4cnc(O)cc4o3)NC(=O)NC1=O)C2 [Compound 2312],1.06 nM,,0.218 µM,,
COc1ccc2c(c1F)C(=O)N(C[C@@]1(c3cc4cncnc4o3)NC(=O)NC1=O)C2 [Compound 303],1.57 nM,0.198 µM,,,
COc1ccc2c(c1)C(=O)N(C[C@@]1(c3cc4cc(C(N)C(F)(F)F)ccc4o3)NC(=O)NC1=O)C2 (stereo partly drawn) [Compound 311],0.594 nM,0.784 µM,,,
COc1ccc2c(c1)C(=O)N(C[C@@]1(c3cc4ccc(C(=O)NCCN5CCCC5)cc4o3)NC(=O)NC1=O)C2 [Compound 2418],0.76 nM,,0.265 µM,,
COc1ccc2c(c1)C(=O)N(C[C@]1(C3=CC(c4ccccc4)N(C)O3)NC(=O)NC1=O)C2 (stereo partly drawn) [Compound 1526],2.5 nM,≥ 100 µM,,,
COc1ccc2c(c1)C(=O)N(C[C@@]1(c3cc4cc(-c5c(N)noc5C)ccc4o3)NC(=O)NC1=O)C2 [Compound 2261],0.347 nM,,,,0.515 µM
COc1ccc2c(c1)C(=O)N(C[C@@]1(c3cc4cc(C)ncc4o3)NC(=O)NC1=O)C2 [Compound 2302],0.437 nM,,0.47 µM,,
COc1ccc2c(c1)C(=O)N(C[C@@]1(c3cc4cc(C(N)=O)c(C)cc4o3)NC(=O)NC1=O)C2 [Compound 2425],0.51 nM,,0.992 µM,,
COc1ccc2c(c1F)C(=O)N(C[C@]1(C3=CC(c4ccccc4)N(C)O3)NC(=O)NC1=O)C2 (stereo partly drawn) [Compound 1525],3.2 nM,≥ 100 µM,,,
CCOC(=O)NCc1ccc2oc([C@]3(CN4Cc5ccc(OC)cc5C4=O)NC(=O)NC3=O)cc2c1 [Compound 2484],,,1.69 µM,0.49 nM,
COc1ccc2c(c1)C(=O)N(C[C@@]1(c3cc4c(o3)CCN(S(C)(=O)=O)C4)NC(=O)NC1=O)C2 [Compound 316],0.82 nM,0.497 µM,,,
COc1ccc2c(c1)C(=O)N(C[C@@]1(c3cc4cc(C(=O)NCCCC[C@H](NC(=O)CCCC[C@@H]5SCC6NC(=O)NC65)C(=O)O)c(F)cc4o3)NC(=O)NC1=O)C2 (stereo partly drawn) [Compound 1283],0.39 nM,,,,3.3 µM

Compound,Ki ([1]; read-out: Ki),"IC50 [2, 3]","IC50 [2, 4]",Ki ([1]; Ki),"IC50 [2, 5]"
COc1ccc2c(c1)C(=O)N(C[C@@]1(c3cc4ncc(C(N)=O)cc4o3)NC(=O)NC1=O)C2 [Compound 1929],,0.173 µM,,0.37 nM,
COc1ccc2c(c1)C(=O)N(C[C@@]1(c3cc4ncc(CO)cc4o3)NC(=O)NC1=O)C2 [Compound 2320],0.586 nM,,0.609 µM,,
COc1ccc2c(c1)C(=O)N(CC1(c3cc4cc(-c5cc(O)[nH]n5)ccc4o3)NC(=O)NC1=O)C2 (stereo not drawn) [Compound 2223],1.23 nM,,,,0.242 µM
COC(=O)c1ccc2oc([C@]3(CN4Cc5ccc(OC)c(F)c5C4=O)NC(=O)NC3=O)cc2n1 [Compound 1903],0.48 nM,0.248 µM,,,
COc1ccc2c(c1)C(=O)N(C[C@@]1(c3cc4c(O)nccc4o3)NC(=O)NC1=O)C2 [Compound 2256],0.231 nM,,,,0.252 µM
COc1ccc2c(c1)C(=O)N(C[C@@]1(c3cc4cc(-c5ccc(N(C)C)nc5)ccc4o3)NC(=O)NC1=O)C2 [Compound 1184],0.85 nM,,,,2.71 µM
COc1ccc2c(c1)C(=O)N(C[C@@]1(c3cc4ccc(C(=O)N[C@@H](C)CO)cc4o3)NC(=O)NC1=O)C2 [Compound 2417],0.64 nM,,0.508 µM,,
COc1ccc2c(c1)C(=O)N(C[C@@]1(c3cc4cc(-c5ccc(N)nc5)ccc4o3)NC(=O)NC1=O)C2 [Compound 2202],0.488 nM,,,,0.713 µM
COc1ccc2c(c1F)C(=O)N(C[C@@]1(c3cc4cc(C5(C)NC(=O)NC5=O)c(C)cc4o3)NC(=O)NC1=O)C2 (stereo partly drawn) [Compound 1306],1.42 nM,0.414 µM,,,
COc1ccc2c(c1)C(=O)N(C[C@@]1(c3cc4nc(C5CC5)ccc4o3)NC(=O)NC1=O)C2 [Compound 1508],0.9 nM,2.43 µM,,,
CCN1CCN(C(=NO)c2cnc3cc([C@]4(CN5Cc6ccc(OC)cc6C5=O)NC(=O)NC4=O)oc3c2)CC1 [Compound 2468],,,0.342 µM,1.44 nM,
COc1ccc2c(c1)C(=O)N(C[C@@]1(c3cc4nc(-c5nnn[nH]5)ccc4o3)NC(=O)NC1=O)C2 [Compound 2167],,,,0.351 nM,0.289 µM
CCN1CCN(C(=NO)c2ccc3oc([C@]4(CN5Cc6ccc(OC)cc6C5=O)NC(=O)NC4=O)cc3c2)CC1 [Compound 2453],0.51 nM,,0.393 µM,,
COc1ccc2c(c1OC)C(=O)N(C[C@@]1(c3cc4nc(C)c(Br)cc4o3)NC(=O)NC1=O)C2 [Compound 1918],2.48 nM,34.1 µM,,,
COc1ccc2c(c1)C(=O)N(C[C@@]1(c3cc4nc(N5CCC(O)CC5)ccc4o3)NC(=O)NC1=O)C2 [Compound 2172],0.577 nM,,,,0.21 µM
COc1ccc2c(c1)C(=O)N(C[C@@]1(c3cc4ncc(C(=O)NC5CC5)cc4o3)NC(=O)NC1=O)C2 [Compound 1931],0.56 nM,0.321 µM,,,
COc1ccc2c(c1)C(=O)N(C[C@@]1(c3cc4cc(C(=O)N5CCC(N(C)C)CC5)c(F)cc4o3)NC(=O)NC1=O)C2 [Compound 1277],0.62 nM,,,,0.471 µM
COc1ccc2c(c1)C(=O)N(C[C@@]1(c3cc4c(o3)CCN(C(=O)Nc3cccnc3)C4)NC(=O)NC1=O)C2 [Compound 321],701 nM,≥ 1000 µM,,,
O=C1NC(=O)[C@](CN2Cc3ccc(O)c(I)c3C2=O)(c2cc3ncccc3o2)N1 [Compound 1736],53.5 nM,> 10 µM,,,
COc1ccc2c(c1)C(=O)N(C[C@@]1(c3cc4nc(-c5cncc(C#N)c5)ccc4o3)NC(=O)NC1=O)C2 [Compound 2471],0.779 nM,,3.66 µM,,
COc1ccc2c(c1F)C(=O)N(C[C@@]1(c3cc4cc(C)nc(C)c4o3)NC(=O)NC1=O)C2 [Compound 203],0.0608 nM,0.943 µM,,,
